From paper PMC7316778 (Nature Communications, 2020)
Where “and” joins values, the source holds several entries; their conditions need not be identical. Equal entries are not always repeated. Where two headings read alike, the source gives them in different places.

How the values were obtained:
Experiment in all cases: SelectScreen kinase assay
CDK13/cyclin K = CDK13/cyclin K (Homo sapiens, UniProt Q14004); assay type: biochemical
CDK1/cyclin B = CDK1/cyclin B (Homo sapiens, UniProt P06493); details: 1 h, 1 μM WEL028, 1 h preincubation
Procedure: (§1) Selectivity profiling assays were performed by the Invitrogen SelectScreen™ Services. […] The concentration of ATP was selected to be equal to the KM, unless indicated otherwise.

DYRK2 = molecular target: T1, DYRK2 (Homo sapiens, UniProt Q92630); details: for Inhibition at 1 µM (%): DYRK2, LanthaScreen Binding
T1 sequence (Q92630 1-601): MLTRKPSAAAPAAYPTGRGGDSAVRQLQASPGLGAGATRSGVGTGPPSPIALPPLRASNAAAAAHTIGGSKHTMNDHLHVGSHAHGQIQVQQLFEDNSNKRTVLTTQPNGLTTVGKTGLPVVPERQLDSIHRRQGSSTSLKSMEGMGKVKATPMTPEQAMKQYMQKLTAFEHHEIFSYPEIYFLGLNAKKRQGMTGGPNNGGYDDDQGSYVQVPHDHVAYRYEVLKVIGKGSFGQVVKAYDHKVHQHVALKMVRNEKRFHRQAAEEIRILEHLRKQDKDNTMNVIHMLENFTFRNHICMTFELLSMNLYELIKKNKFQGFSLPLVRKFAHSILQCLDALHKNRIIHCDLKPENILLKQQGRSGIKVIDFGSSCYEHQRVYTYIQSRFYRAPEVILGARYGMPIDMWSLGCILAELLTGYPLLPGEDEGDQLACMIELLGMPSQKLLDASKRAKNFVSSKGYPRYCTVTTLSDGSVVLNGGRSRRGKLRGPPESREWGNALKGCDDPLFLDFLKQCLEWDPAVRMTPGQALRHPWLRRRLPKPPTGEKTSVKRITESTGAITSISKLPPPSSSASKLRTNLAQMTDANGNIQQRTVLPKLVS
Procedure: as §1

EGFR (ErbB1) = EGFR (ErbB1) (Homo sapiens, UniProt P00533)
Procedure: as §1

IRAK3 = molecular target: T2, IRAK3 (Homo sapiens, UniProt Q9Y616)
T2 sequence (Q9Y616 1-596): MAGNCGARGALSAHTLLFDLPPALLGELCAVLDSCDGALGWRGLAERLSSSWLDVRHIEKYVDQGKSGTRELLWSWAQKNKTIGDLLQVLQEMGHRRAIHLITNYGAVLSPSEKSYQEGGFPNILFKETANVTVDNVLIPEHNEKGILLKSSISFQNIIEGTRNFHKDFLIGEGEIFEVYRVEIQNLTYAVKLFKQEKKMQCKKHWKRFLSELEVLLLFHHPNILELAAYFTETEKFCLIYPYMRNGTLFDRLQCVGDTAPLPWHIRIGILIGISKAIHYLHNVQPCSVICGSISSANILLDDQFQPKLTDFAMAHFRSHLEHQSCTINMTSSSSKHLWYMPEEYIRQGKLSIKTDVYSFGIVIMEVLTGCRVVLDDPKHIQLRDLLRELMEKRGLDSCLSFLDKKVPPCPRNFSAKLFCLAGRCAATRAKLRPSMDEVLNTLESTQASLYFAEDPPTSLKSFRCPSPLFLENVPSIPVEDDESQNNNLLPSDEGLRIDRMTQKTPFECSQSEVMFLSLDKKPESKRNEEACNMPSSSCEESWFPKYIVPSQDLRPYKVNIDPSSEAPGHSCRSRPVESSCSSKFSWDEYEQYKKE
Procedure: as §1

MAP3K19 (YSK4) = MAP3K19 (YSK4) (Homo sapiens, UniProt Q56UN5)
Procedure: as §1

PRKACB (PRKAC beta) = PRKACB (PRKAC beta) (Homo sapiens, UniProt P22694); details: for Inhibition at 1 µM (%): PRKACB (PRKAC beta), LanthaScreen Binding
Procedure: as §1

STK16 (PKL12) = STK16 (PKL12) (Homo sapiens, UniProt O75716)
Procedure: as §1

ULK2 = molecular target: T3, ULK2 (Homo sapiens, UniProt Q8IYT8)
T3 sequence (Q8IYT8 1-1036): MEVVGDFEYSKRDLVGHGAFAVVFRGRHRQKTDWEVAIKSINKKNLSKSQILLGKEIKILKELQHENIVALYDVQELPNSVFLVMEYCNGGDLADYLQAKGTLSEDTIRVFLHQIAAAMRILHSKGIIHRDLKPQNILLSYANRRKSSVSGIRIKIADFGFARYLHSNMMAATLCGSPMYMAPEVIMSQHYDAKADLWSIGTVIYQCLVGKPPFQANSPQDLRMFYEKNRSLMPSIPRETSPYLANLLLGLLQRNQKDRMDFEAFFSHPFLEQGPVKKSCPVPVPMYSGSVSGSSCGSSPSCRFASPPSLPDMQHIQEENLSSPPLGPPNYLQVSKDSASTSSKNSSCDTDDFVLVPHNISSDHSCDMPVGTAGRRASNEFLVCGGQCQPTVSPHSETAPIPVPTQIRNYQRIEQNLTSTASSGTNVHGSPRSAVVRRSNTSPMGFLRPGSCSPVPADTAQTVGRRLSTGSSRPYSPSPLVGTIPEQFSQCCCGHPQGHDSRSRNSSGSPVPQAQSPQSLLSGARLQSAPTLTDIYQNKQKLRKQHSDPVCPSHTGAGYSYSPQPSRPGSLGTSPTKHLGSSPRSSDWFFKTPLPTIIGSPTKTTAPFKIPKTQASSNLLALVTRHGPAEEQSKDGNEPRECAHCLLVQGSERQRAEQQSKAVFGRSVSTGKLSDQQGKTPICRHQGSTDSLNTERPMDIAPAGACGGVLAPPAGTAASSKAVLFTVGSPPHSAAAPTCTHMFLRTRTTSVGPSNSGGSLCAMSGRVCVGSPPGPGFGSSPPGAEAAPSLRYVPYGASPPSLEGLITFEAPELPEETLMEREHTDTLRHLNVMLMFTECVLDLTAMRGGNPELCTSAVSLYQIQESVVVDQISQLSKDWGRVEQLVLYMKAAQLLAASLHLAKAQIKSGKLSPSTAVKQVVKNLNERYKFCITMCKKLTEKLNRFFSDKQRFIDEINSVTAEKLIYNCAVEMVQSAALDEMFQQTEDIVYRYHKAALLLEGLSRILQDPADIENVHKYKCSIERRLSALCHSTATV
Procedure: as §1

[1] = 1 h, 1 μM WEL028, 1 h preincubation
[2] = 1 µM, LanthaScreen Binding, listed as WEL028, 1 µM
[3] = read-out: Inhibition at 1 µM (%), 1 µM, LanthaScreen Binding

Chain of MAP3K19 (YSK4) (Q56UN5 whole entry): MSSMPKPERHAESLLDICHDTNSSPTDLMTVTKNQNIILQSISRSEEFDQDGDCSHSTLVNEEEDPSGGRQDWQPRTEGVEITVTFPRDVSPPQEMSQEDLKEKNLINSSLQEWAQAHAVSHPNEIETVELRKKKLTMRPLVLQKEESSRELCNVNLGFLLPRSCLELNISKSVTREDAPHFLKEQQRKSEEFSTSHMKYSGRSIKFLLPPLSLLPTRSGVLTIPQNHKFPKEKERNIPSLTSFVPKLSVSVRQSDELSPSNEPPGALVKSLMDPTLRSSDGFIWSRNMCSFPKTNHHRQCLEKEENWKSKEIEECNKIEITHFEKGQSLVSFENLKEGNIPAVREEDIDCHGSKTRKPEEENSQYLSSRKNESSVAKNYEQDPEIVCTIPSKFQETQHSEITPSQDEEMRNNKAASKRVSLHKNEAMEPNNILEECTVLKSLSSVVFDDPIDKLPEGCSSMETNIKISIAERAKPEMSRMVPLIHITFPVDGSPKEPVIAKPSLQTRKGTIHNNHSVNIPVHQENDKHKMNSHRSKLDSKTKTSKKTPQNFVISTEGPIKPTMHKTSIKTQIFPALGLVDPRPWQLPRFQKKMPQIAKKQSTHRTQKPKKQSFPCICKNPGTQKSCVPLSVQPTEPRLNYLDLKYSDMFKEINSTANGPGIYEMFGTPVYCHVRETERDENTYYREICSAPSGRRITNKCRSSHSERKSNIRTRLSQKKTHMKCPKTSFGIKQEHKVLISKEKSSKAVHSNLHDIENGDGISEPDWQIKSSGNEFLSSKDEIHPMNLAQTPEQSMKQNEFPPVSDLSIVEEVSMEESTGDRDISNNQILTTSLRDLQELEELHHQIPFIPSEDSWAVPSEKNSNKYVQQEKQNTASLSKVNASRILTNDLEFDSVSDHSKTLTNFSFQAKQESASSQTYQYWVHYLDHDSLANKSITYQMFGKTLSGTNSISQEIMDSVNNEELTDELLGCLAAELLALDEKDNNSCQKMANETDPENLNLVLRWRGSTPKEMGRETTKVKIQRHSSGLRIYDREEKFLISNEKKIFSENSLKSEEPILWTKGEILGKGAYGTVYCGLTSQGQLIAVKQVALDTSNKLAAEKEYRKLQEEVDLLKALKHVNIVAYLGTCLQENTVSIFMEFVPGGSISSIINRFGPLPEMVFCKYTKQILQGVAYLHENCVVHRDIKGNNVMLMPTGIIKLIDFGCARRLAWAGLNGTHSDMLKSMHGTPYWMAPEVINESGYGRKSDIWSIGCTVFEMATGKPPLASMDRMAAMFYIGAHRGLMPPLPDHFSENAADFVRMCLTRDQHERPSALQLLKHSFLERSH
Chain of CDK13/cyclin K (Q14004 whole entry): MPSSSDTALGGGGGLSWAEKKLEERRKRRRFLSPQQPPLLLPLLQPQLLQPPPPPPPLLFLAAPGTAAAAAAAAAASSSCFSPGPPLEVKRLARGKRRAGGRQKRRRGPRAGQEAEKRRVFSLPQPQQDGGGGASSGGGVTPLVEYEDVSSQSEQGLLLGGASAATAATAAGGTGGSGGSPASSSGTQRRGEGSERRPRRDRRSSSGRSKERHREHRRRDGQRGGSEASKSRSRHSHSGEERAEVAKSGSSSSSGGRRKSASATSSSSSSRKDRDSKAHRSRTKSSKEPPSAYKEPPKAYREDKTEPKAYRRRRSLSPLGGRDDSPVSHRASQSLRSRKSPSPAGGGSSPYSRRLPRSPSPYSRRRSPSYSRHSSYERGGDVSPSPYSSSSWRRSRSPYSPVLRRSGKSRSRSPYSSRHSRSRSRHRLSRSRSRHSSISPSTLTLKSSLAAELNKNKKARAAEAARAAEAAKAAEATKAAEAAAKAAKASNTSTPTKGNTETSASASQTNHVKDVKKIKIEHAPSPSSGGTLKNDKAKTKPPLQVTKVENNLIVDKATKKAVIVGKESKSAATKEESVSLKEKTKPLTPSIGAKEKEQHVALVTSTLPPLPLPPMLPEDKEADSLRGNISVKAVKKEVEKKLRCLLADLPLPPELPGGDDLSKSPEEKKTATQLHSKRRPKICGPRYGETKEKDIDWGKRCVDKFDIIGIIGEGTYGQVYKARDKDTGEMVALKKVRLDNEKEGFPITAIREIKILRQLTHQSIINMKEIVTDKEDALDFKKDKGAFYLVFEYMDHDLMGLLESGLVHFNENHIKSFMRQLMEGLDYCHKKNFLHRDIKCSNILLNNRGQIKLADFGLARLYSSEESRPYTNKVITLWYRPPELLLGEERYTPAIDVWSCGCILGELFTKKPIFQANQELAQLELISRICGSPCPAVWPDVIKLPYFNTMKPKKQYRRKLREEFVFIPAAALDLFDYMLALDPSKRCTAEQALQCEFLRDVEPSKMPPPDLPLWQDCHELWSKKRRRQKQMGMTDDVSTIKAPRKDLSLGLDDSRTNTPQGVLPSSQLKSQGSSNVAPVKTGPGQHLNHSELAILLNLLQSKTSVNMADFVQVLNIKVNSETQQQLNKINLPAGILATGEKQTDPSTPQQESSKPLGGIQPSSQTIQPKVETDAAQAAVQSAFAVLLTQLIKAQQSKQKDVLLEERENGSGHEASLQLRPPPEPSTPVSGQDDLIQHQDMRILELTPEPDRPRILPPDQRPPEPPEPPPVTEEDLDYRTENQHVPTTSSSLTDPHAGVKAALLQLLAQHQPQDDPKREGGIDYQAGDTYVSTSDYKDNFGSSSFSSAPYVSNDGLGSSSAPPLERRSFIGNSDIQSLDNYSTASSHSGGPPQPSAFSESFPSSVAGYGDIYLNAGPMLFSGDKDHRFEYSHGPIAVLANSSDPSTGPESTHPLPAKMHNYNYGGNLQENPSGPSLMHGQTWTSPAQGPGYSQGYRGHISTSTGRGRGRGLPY
Chain of CDK13/cyclin K (O75909 whole entry partner): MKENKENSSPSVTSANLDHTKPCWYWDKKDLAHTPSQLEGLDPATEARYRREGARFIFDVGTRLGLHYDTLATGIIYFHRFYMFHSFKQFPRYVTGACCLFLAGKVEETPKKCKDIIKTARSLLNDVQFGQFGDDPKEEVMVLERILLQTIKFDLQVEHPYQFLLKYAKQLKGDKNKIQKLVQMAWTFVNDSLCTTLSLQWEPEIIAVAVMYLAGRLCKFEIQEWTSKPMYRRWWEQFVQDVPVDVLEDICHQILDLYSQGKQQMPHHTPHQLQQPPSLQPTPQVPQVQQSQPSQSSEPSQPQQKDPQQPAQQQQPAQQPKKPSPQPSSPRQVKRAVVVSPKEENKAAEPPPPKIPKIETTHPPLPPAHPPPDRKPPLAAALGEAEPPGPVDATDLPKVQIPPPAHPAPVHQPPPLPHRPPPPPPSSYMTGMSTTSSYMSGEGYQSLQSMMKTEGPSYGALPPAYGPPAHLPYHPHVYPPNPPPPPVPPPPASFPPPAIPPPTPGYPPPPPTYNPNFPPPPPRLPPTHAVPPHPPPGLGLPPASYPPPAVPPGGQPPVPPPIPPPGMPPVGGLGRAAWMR
Chain of STK16 (PKL12) (O75716 whole entry): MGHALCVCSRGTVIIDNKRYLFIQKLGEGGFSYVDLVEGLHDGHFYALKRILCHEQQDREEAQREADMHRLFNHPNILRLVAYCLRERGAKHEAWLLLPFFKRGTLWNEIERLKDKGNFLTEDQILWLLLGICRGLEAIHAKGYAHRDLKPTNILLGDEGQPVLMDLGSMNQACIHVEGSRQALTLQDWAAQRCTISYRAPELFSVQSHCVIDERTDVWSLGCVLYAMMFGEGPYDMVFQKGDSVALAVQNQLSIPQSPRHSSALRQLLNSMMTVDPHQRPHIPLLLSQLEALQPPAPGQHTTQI
Chain of EGFR (ErbB1) (P00533 25-1210): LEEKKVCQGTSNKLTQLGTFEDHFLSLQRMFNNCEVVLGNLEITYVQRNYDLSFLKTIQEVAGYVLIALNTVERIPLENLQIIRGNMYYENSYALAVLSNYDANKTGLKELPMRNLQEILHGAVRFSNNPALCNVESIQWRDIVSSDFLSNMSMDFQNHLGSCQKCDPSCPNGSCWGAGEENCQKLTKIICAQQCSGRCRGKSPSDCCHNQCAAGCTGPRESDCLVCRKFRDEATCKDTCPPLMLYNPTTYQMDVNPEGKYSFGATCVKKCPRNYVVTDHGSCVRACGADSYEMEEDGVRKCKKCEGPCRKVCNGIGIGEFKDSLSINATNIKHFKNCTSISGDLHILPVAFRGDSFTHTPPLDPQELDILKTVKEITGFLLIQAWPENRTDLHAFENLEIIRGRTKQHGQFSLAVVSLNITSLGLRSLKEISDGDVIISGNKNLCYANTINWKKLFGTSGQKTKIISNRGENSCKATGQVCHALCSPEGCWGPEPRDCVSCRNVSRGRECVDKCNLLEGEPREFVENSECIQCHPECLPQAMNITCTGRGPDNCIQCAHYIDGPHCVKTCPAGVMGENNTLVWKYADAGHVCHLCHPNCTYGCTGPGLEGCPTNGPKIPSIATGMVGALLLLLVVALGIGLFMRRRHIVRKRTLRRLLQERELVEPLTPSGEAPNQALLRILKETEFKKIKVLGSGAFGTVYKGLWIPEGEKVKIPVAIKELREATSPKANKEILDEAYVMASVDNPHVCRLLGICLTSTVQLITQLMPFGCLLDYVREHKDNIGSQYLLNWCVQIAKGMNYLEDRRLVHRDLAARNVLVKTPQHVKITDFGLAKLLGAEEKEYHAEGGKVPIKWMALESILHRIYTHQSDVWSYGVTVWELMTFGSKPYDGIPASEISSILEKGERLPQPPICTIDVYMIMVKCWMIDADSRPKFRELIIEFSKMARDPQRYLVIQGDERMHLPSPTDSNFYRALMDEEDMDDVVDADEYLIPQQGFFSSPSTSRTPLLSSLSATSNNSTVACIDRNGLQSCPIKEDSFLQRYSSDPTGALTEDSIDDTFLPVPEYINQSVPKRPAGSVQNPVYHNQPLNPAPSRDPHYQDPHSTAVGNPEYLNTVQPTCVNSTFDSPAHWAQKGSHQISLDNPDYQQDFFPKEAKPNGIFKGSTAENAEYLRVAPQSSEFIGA

C#CCOc1ccc(Nc2ncc(Cl)c(Nc3ccccc3NC(=O)C=C)n2)c(OC)c1 [Compound 6]
Inhibition (%) (CDK13/cyclin K; 1 μM WEL028, 1 h preincubation): -3%
Inhibition at 1 µM (%) (CDK13/cyclin K; CDK13/cyclin K, 1 µM, LanthaScreen Binding, listed as WEL028, 1 µM): -1% and -5%
inhibition at 1 µM (CDK1/cyclin B): 1%
inhibition at 1 µM (DYRK2; [1]): 7%
Inhibition at 1 µM (%) (DYRK2): 11%
Inhibition at 1 µM (%) (DYRK2; listed as WEL028, 1 µM): 4%
Inhibition (%) (EGFR (ErbB1); 1 μM WEL028, 1 h preincubation): 6%
Inhibition at 1 µM (%) (EGFR (ErbB1); EGFR (ErbB1), 1 µM, ZLYTE, ATP Km app, listed as WEL028, 1 µM): 8%
inhibition at 1 µM (EGFR (ErbB1); read-out: Inhibition at 1 µM (%), EGFR (ErbB1), 1 µM, ZLYTE, ATP Km app): 4%
inhibition at 1 µM (IRAK3; [1]): 56%
Inhibition at 1 µM (%) (IRAK3; IRAK3, 1 µM, LanthaScreen Binding, listed as WEL028, 1 µM): 58%
inhibition at 1 µM (IRAK3; read-out: Inhibition at 1 µM (%), IRAK3, 1 µM, LanthaScreen Binding): 55%
inhibition at 1 µM (MAP3K19 (YSK4); [1]): 0%
Inhibition at 1 µM (%) (MAP3K19 (YSK4); MAP3K19 (YSK4), 1 µM, ZLYTE, ATP Km app, listed as WEL028, 1 µM): -1% and 1%
inhibition at 1 µM (PRKACB (PRKAC beta); [1]): 8%
Inhibition at 1 µM (%) (PRKACB (PRKAC beta)): 12%
Inhibition at 1 µM (%) (PRKACB (PRKAC beta); listed as WEL028, 1 µM): 5%
Inhibition at 1 µM (%) (STK16 (PKL12); [2]): 29%
inhibition at 1 µM (STK16 (PKL12); [1]): 32%
inhibition at 1 µM (STK16 (PKL12); [3]): 35%
Inhibition at 1 µM (%) (ULK2; [2]): 4%
inhibition at 1 µM (ULK2; [1]): 3%
inhibition at 1 µM (ULK2; [3]): 2%
